Experimental data as given in ChEMBL document CHEMBL4480461, “Karamomycins A-C: 2-Naphthalen-2-yl-thiazoles from Nonomuraea endophytica” (J Nat Prod, 2019).
Activity calls are given as the source filed them.

What was measured:
Type in all cases: functional, organism-based
Staphylococcus aureus = test: Antimicrobial activity against Staphylococcus aureus at 40 ug/disc by agar diffusion method
Bacillus subtilis = test: Antimicrobial activity against Bacillus subtilis ATCC 6051 at 40 ug/disc by agar diffusion method
[1] = tested on: Streptomyces viridochromogenes; test: Antimicrobial activity against Streptomyces viridochromogenes Tue57 at 40 ug/disc by agar diffusion method
Desmodesmus subspicatus = test: Antimicrobial activity against Scenedesmus subspicatus at 40 ug/disc by agar diffusion method
Chlorella vulgaris = test: Antimicrobial activity against Chlorella vulgaris at 40 ug/disc by agar diffusion method
Candida albicans = test: Antimicrobial activity against Candida albicans at 40 ug/disc by agar diffusion method
Escherichia coli = test: Antimicrobial activity against Escherichia coli at 40 ug/disc by agar diffusion method
Chlorella sorokiniana = test: Antimicrobial activity against Chlorella sorokiniana at 40 ug/disc by agar diffusion method
Rhizomucor miehei = test: Antimicrobial activity against Mucor miehei Tu 284 at 40 ug/disc by agar diffusion method

Measured: Activity

COc1cc(-c2nc(CO)cs2)c(O)c2ccccc12
inactive: all assays above

COc1cc(C2=N[C@H]([C@@H]3SC[C@H]4[C@@H]5SC[C@](C)(C(=O)N43)N5C)CS2)c(O)c2ccccc12
inactive: all assays above

COc1cc(C2=N[C@H](CO)CS2)c(O)c2ccccc12
inactive: all assays above
